Measurements taken from PubChem BioAssay AID651948 (The Scripps Research Institute Molecular Screening Center, 2012).

Target: Heat shock 70 kDa protein 1A (Homo sapiens) (UniProt P0DMV8)
Assay: PubChem AID 651948
Conditions: HeLa Hsp70 protein level, western blot, 8 h; at 10 µM; active compounds read high

Chain of Heat shock 70 kDa protein 1A (Homo sapiens) (P0DMV8 whole entry, looked up): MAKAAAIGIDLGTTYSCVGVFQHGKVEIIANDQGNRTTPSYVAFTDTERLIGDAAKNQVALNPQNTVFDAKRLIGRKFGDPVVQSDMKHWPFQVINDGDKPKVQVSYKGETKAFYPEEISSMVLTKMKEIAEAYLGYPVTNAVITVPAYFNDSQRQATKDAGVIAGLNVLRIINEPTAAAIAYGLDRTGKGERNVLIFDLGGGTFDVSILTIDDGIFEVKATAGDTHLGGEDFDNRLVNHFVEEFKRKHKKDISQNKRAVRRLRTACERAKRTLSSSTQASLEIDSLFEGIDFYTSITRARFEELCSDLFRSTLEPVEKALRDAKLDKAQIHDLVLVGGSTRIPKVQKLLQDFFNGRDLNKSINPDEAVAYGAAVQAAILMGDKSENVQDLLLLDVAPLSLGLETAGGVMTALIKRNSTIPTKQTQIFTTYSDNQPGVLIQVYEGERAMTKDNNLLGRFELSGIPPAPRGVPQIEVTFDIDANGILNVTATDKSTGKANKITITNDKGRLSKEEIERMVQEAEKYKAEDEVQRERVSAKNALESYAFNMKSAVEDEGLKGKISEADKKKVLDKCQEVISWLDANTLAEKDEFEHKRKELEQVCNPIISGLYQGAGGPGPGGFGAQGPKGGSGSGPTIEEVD

COc1ccc(/C=C/C=C2C(=O)NC(=O)NC2=O)cc1
fold induction: 1.8
